The values below come from ChEMBL document CHEMBL1124489, “Synthesis and thromboxane synthetase inhibitory activity of di- or tetrahydrobenzo[b]thiophenecarboxylic acid derivatives” (J Med Chem, 1989).

For one assay, the system named is Oryctolagus cuniculus. In words: Protection against sodium arachidonate induced sudden death in rabbit, 1 hr after peroral administration. The note with it: po. Format: functional.
For assay [1], the target named is T1, Thromboxane-A synthase (Rattus norvegicus) (UniProt P49430).
T1 sequence (whole entry): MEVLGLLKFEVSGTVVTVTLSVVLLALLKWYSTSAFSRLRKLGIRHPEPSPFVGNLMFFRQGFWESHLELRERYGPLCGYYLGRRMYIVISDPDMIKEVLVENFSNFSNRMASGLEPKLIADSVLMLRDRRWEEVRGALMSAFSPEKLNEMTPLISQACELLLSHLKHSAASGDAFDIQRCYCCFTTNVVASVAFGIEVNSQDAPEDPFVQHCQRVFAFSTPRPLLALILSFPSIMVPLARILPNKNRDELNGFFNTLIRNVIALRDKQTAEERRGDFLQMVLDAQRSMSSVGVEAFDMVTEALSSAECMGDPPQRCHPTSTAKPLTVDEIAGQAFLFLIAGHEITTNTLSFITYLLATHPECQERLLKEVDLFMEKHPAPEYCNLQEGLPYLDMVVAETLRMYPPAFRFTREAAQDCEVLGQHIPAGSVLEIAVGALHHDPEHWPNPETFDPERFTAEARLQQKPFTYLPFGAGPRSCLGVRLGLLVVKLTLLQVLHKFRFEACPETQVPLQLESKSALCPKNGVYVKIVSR
In words: Inhibition of rat serum thromboxane A2 synthetase after 2 hr of oral administration of compound.

Assay [2] deals with Thromboxane-A synthase (Oryctolagus cuniculus). In words: Inhibition of thromboxane A2 synthetase.
Another assay concerns the target T2, Thromboxane-A synthase (Homo sapiens, UniProt P24557).
T2 sequence (P24557 whole entry): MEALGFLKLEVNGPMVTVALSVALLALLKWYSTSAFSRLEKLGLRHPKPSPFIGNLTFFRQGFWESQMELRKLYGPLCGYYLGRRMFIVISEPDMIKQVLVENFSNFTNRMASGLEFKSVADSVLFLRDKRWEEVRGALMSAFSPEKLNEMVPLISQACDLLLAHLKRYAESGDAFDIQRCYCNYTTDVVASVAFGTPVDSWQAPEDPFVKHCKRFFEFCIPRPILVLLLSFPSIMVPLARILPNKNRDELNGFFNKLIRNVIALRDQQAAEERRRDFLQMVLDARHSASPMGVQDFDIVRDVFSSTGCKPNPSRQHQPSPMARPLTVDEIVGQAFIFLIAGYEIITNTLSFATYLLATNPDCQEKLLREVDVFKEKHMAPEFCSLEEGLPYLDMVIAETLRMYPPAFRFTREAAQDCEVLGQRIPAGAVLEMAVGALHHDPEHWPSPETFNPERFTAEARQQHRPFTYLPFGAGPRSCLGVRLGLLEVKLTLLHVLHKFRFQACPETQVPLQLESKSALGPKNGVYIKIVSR
In words: Inhibition of platelet microsomal thromboxane A synthetase in humans.

The target in assay [3] is T1, Thromboxane-A synthase (Rattus norvegicus). The note with it: Serum.

In general, ED50 refers to the dose that gives a 50% effect, or the effect in half of the subjects. A higher ED50 goes with weaker potency. As usually defined, the IC50 is the concentration that inhibits the measured activity by half. For the compound `O=C(O)C1CCc2cc(Cn3ccnc3)sc2C1` (centres undefined), in the assay with Oryctolagus cuniculus, the 50% effective dose (ED50) came to 0.9 µmol/kg. Moreover, the ID50 in assay [1] worked out at 0.027 µmol/kg. The figures for the IC50 (in assay [2]; against Thromboxane-A synthase) were 26 nM and 20 nM, respectively.

`O=C(O)c1ccc(OCCn2ccnc2)cc1` [DAZOXIBEN]: in the assay on Oryctolagus cuniculus, the ED50 came to 3.17 µmol/kg. In assay [3], this compound gave an ID50 of 0.468 µmol/kg.

As to `O=C(O)C1=Cc2sc(Cn3ccnc3)cc2CC1` [IMITRODAST], in the assay on Oryctolagus cuniculus, the ED50 came to 0.43 µmol/kg. Further, the ID50 in assay [1] stood at 0.064 µmol/kg. At Thromboxane-A synthase, half-maximal inhibition (IC50) required 6 nM.
